Laboratory results: patent publication US8361994B2, “Primary amine diazeniumdiolate heterocyclic derivatives” (Merck Sharp & Dohme Corp, priority 2011, dated 2013)

Test system: Male beagle dogs
Assay: canine telemetry protocol, blood pressure reduction efficacy
Assay type: in vivo
Settings: change from baseline, 3 mg/kg, oral gavage; for ΔPP (mm Hg) 1-6 h / ΔPP (mm Hg) 6-12 h / ΔPP (mm Hg) 12-18 h: pulse pressure; for ΔSBP (mm Hg) 1-6 h / ΔSBP (mm Hg) 6-12 h / ΔSBP (mm Hg) 12-18 h: systolic blood pressure
Procedure: Compounds of the invention were evaluated for blood pressure reduction efficacy using the following canine telemetry protocol described below.
Male beagle dogs (approximately 1-3 years old) with a body weight of between 10 and 16 kg were surgically implanted with DSI radiotelemetry devices (model: TL11M2-D70-PCT). Briefly, under an inhalant anesthesia, isoflurane/oxygen mixture (1-3.5%/to effect), the body of the telemetry device was positioned and secured intra-abdominally. Subsequently, the arterial catheter of the telemetry device was passed subcutaneously to the inguinal area and introduced into the femoral artery and advanced to the level of the descending aorta. The catheter was secured with 2-0 silk ligatures. The muscle and underlying fascia was closed over the catheter using absorbable suture and the skin was closed using non-absorbable suture. The animals were allowed a minimum recovery period of 2 weeks between surgery and the evaluation of test compounds.
Compound evaluation consisted of a 3 day paradigm at a 3 mg/kg dose. On the first day, no compounds were administered during a 24 hour period of baseline data collection. Blood pressure and heart rate data were collected continuously for one minute periods at 10 minute intervals. On the days of compound administration half the animals received test article with the other half receiving the vehicle used for compound formulation. All test materials were administered by oral gavage in a volume of 1 mL/kg. Data are expressed either as raw values (mm Hg or beats per minute) or as the change from baseline (average value for about 12 hours in low activity period prior to dosing). Change is SBP (systolic blood pressure) and PP (pulse pressure) over time is shown below: […]

Compound | ΔPP (mm Hg) 1-6 h | ΔPP (mm Hg) 6-12 h | ΔPP (mm Hg) 12-18 h | ΔSBP (mm Hg) 1-6 h | ΔSBP (mm Hg) 6-12 h | ΔSBP (mm Hg) 12-18 h
CC(C)(C)N/[N+]([O-])=N/O[C@@H]1CCN(c2cccc(C#N)c2)C1 [Example 32, O^2-[(3R)-1-(3-cyanophenyl)pyrrolidin-3-yl]1-(N-tert-butylamino)diazen-1-ium-1,2-diolate] | −7 mm Hg | −12 mm Hg | −13 mm Hg | −10 mm Hg | −17 mm Hg | −17 mm Hg
CC(C)(C)N/[N+]([O-])=N/OC1CCN(c2ccc(C#N)cn2)CC1 [Example 22, O^2-[1-(5-cyanopyridin-2-yl)piperidin-4-yl]1-(N-tert-butylamino)diazen-1-ium-1,2-diolate] | −15 mm Hg | −17 mm Hg | −16 mm Hg | −19 mm Hg | −18 mm Hg | −21 mm Hg
CC(C)(C)NC(=O)N1CC[C@@H](O/N=[N+](\[O-])NC(C)(C)C)C1 [Example 9, O^2-[(3R)-1-(tert-butylcarbamoyl)pyrrolidin-3-yl]1-(N-tert-butylamino)diazen-1-ium-1,2-diolate] | −23 mm Hg | −27 mm Hg | −11 mm Hg | −24 mm Hg | −25 mm Hg | −18 mm Hg
Cc1cccc(N2CC[C@@H](O/N=[N+](\[O-])NC(C)(C)C)C2=O)c1 [Example 36, O^2-[(3R)-1-(3-methylphenyl)-2-oxopyrrolidin-3-yl]1-(N-tert-butylamino)diazen-1-ium-1,2-diolate] | −9 mm Hg | −7 mm Hg | −4 mm Hg | −23 mm Hg | −17 mm Hg | −14 mm Hg
